Consider eight compounds from patent publication US7569550B2, “14 and 15 membered ring compounds” (Glaxo Group Limited, priority 2003, dated 2009).

Common to all, as to test: MIC, standard broth dilution method in microtitre
What all share (type): cell-based
(Dilution methods test growth across graded concentrations, often in twofold steps.)

The test system of assay [1] is erythromycin resistant strains of Streptococcus pneumoniae. The method, then: (§1) Using a standard broth dilution method in microtitre, compounds were tested for antibacterial activity. The compounds in the above examples gave minimum inhibitory concentrations (MICs) less than 1 microgram per millilitre against erythromycin-sensitive and erythromycin-resistant strains of Streptococcus pneumoniae and Streptococcus pyogenes.

For assay [2], the system named is erythromycin resistant strains of Streptococcus pyogenes. As to the method:
as §1

For assay [3], the system named is S. pneumoniae SP030. The following applies: Streptococcus pneumoniae. The method, then:
as §1
(§2) In addition, the MIC (μg/ml) of test compounds against various organisms was determined including:
(§3) S. aureus Smith ATCC 13709, S. pneumoniae SP030, S. pyogenes 3565, E. faecalis ATCC 29212, H. influenzae ATCC 49247, M. catarrhalis ATCC 23246.

Assay [4] concerns H. influenzae ATCC 49247. The note with it: Haemophilus influenzae, ATCC49247; H. influenzae ATCC 49247; read-out: MIC. As to the method: as §1, §2, §3
Assay [5] deals with M. catarrhalis ATCC 23246. The note with it: Moraxella catarrhalis, ATCC23246. As to the method: as §1, §2, §3
Assay [6] relates to S. aureus Smith ATCC 13709. The note with it: Staphylococcus aureus, ATCC13709. The method, then: as §1, §2, §3
Assay [7] has as its system S. pyogenes 3565. The following applies: Streptococcus pyogenes. As to the method: as §1, §2, §3
In assay [8] the test system is E. faecalis ATCC 29212. The note with it: Enterococcus faecalis, ATCC29212. The method, then:
as §1, §2, §3

Counter-ions that a name gives are not always drawn.

`CC[C@@H]1OC(=O)[C@H](C)[C@H](O[C@@H]2C[C@](C)(OC)[C@H](OCCCOCCCc3ccc4c(c3)c(=O)c(C(=O)O)cn4CC)[C@H](C)O2)[C@@H](C)[C@H](O[C@H]2O[C@@H](C)C[C@@H](N(C)C)[C@H]2O)[C@](C)(OC)C[C@H](C)C(=O)[C@H](C)[C@H](O)[C@@]1(C)O` [Example 20, 4″-O-{3-[3-(3-Carboxy-1-ethyl-4-oxo-1,4-dihydro-quinolin-6-yl)-propoxy]-propyl}-6-O-methyl-erythromycin A monoformate]: the MIC in assay [1] is not above 1 µg/mL; in assay [2], not above 1 µg/mL; in assay [3], not above 1 µg/mL; in assay [4], not above 4 µg/mL; in assay [5], not above 4 µg/mL; in assay [6] it was not above 1 µg/mL. In addition, the MIC in assay [7] and in assay [8] was not above 1 µg/mL in each case.
With `CC[C@H]1OC(=O)[C@H](C)[C@@H](O[C@H]2C[C@@](C)(OC)[C@@H](OCCCNCCNc3nc4c(cc3F)c(=O)c(C(=O)O)cn4CC)[C@H](C)O2)[C@H](C)[C@@H](O[C@@H]2O[C@H](C)CC(N(C)C)[C@H]2O)[C@](C)(OC)C[C@@H](C)C(=O)[C@@H](C)[C@H]2NC(=O)O[C@@]21C` (stereo partly drawn) [Example 21, 4″-O-{3-[2-(3-Carboxy-1-ethyl-6-fluoro-4-oxo-1,4-dihydro-[1,8]naphthyridin-7-ylamino)-ethylamino]-propyl}-6-O-methyl-11-desoxy-11-(R)-amino-erythromycin A 11,12-carbamate formate], the MIC in assay [1] is not above 1 µg/mL; in assay [2], not above 1 µg/mL; in assay [3], not above 1 µg/mL; in assay [4], not above 4 µg/mL; in assay [5], not above 4 µg/mL; in assay [6], not above 1 µg/mL. Moreover, the MIC in assay [7] and in assay [8] was not above 1 µg/mL throughout.
On to `CC[C@H]1OC(=O)[C@H](C)[C@@H](O[C@H]2C[C@@](C)(OC)[C@@H](OCCCNCCCc3ccc4c(c3C)c(=O)c(C(=O)O)cn4CC)[C@H](C)O2)[C@H](C)[C@@H](O[C@@H]2O[C@H](C)CC(N(C)C)[C@H]2O)[C@](C)(OC)C[C@@H](C)C(=O)[C@@H](C)[C@H]2NC(=O)O[C@@]21C` (stereo partly drawn) [Example 23, 4″-O-{3-[3-(3-Carboxy-1-ethyl-5-methyl-4-oxo-1,4-dihydro-quinolin-6-yl)-propylamino]-propyl}-6-O-methyl-11-desoxy-11-(R)-amino-erythromycin A 11,12-carbamate formate], for which the MIC in assay [1] is not above 1 µg/mL; in assay [2], not above 1 µg/mL; in assay [3], not above 1 µg/mL; in assay [4], not above 4 µg/mL; in assay [5] it was not above 4 µg/mL; in assay [6], not above 1 µg/mL. In addition, the MIC in assay [7] and in assay [8] was not above 1 µg/mL throughout.
For the compound `CC[C@H]1OC(=O)[C@H](C)[C@@H](O[C@H]2C[C@@](C)(OC)[C@@H](OCCCN(C)CCNc3nc4c(cc3F)c(=O)c(C(=O)O)cn4CC)[C@H](C)O2)[C@H](C)[C@@H](O[C@@H]2O[C@H](C)C[C@H](N(C)C)[C@H]2O)[C@](C)(OC)C[C@@H](C)C(=O)[C@@H](C)[C@H]2NC(=O)O[C@@]21C` [Example 27, 4″-O-{3-[[2-(3-Carboxy-1-ethyl-6-fluoro-4-oxo-1,4-dihydro-[1,8]naphthyridin-7-ylamino)-ethyl]-methylamino]-propyl}-6-O-methyl-11-desoxy-11-(R)-amino-erythromycin A 11,12-carbamate formate], the MIC in assay [1] was not above 1 µg/mL; in assay [2] it was not above 1 µg/mL; in assay [3] it was not above 1 µg/mL; in assay [4], not above 4 µg/mL; in assay [5], not above 4 µg/mL; in assay [6], not above 1 µg/mL. Further, the MIC in assay [7] and in assay [8] was not above 1 µg/mL throughout.
Consider `CC[C@H]1OC(=O)[C@H](C)[C@@H](O[C@H]2C[C@@](C)(OC)[C@@H](OCCCN(C)CCOc3cc4c5c(c3)c(=O)c(C(=O)O)cn5CCC4)[C@H](C)O2)[C@H](C)[C@@H](O[C@@H]2O[C@H](C)C[C@H](N(C)C)[C@H]2O)[C@](C)(OC)C[C@@H](C)C(=O)[C@@H](C)[C@H]2NC(=O)O[C@@]21C` [Example 28, 4″-O-{3-[[2-(2-Carboxy-1-oxo-6,7-dihydro-1H,5H-pyrido[3,2,1-ij]quinolin-9-yloxy)-ethyl]-methylamino]-propyl}-6-O-methyl-11-desoxy-11-(R)-amino-erythromycin A 11,12-carbamate formate], for which the MIC in assay [1] is not above 1 µg/mL; in assay [2] it was not above 1 µg/mL; in assay [3], not above 1 µg/mL; in assay [4] it was not above 4 µg/mL; in assay [5], not above 4 µg/mL; in assay [6], not above 1 µg/mL. Moreover, the MIC in assay [7] and in assay [8] was not above 1 µg/mL in each case.
`CC[C@@H]1OC(=O)[C@H](C)[C@H](O[C@@H]2C[C@](C)(OC)[C@H](OCCCN(C)CCCc3ccc4c(c3)c(=O)c(C(=O)O)cn4CC)[C@H](C)O2)[C@@H](C)[C@H](O[C@H]2O[C@@H](C)C[C@@H](N(C)C)[C@H]2O)[C@](C)(OC)C[C@H](C)C(=O)[C@H](C)[C@H]2NC(=O)O[C@@]12C` [Example 29, 4″-O-{3-[[3-(3-Carboxy-1-ethyl-4-oxo-1,4-dihydro-quinolin-6-yl)-propyl]-methylamino]-propyl}-6-O-methyl-11-desoxy-11-(R)-amino-erythromycin A 11,12-carbamate formate]: the MIC in assay [1] is not above 1 µg/mL; in assay [2], not above 1 µg/mL; in assay [3] it was not above 1 µg/mL; in assay [4], not above 4 µg/mL; in assay [5] it was not above 4 µg/mL; in assay [6] it was not above 1 µg/mL. Moreover, the MIC in assay [7] and in assay [8] was not above 1 µg/mL each time.
For the compound `CC[C@H]1OC(=O)[C@H](C)[C@@H](O[C@H]2C[C@@](C)(OC)[C@@H](OCCCN(C)CCCc3cnc4c(c3)c(=O)c(C(=O)O)cn4CC)[C@H](C)O2)[C@H](C)[C@@H](O[C@@H]2O[C@H](C)C[C@H](N(C)C)[C@H]2O)[C@](C)(OC)C[C@@H](C)C(=O)[C@@H](C)[C@H]2NC(=O)O[C@@]21C` [Example 30, 4″-O-{3-[[3-(3-Carboxy-1-ethyl-4-oxo-1,4-dihydro-6-[1,8]naphthryidinyl)-propyl]-methylamino]-propyl}-6-O-methyl-11-desoxy-11-(R)-amino-erythromycin A 11,12-carbamate], the MIC is not above 1 µg/mL in assay [1]; not above 1 µg/mL in assay [2]; not above 1 µg/mL in assay [3]; not above 4 µg/mL in assay [4]; not above 4 µg/mL in assay [5]; not above 1 µg/mL in assay [6]. For the same compound, the MIC in assay [7] and in assay [8] was not above 1 µg/mL each time.
On to `CC[C@H]1OC(=O)[C@H](C)[C@@H](O[C@H]2C[C@@](C)(OC)[C@@H](OCCCN(C)CCCc3cc4c5c(c3)c(=O)c(C(=O)O)cn5CCC4)[C@H](C)O2)[C@H](C)[C@@H](O[C@@H]2O[C@H](C)C[C@H](N(C)C)[C@H]2O)[C@](C)(OC)C[C@@H](C)C(=O)[C@@H](C)[C@H]2NC(=O)O[C@@]21C` [Example 31, 4″-O-{3-[[3-(2-Carboxy-1-oxo-6,7-dihydro-1H,5H-pyrido[3,2,1-ij]quinolin-9-yl)-propyl]-methylamino]-propyl}-6-O-methyl-11-desoxy-11-(R)-amino-erythromycin A 11,12-carbamate], for which the MIC in assay [1] is not above 1 µg/mL; in assay [2], not above 1 µg/mL; in assay [3], not above 1 µg/mL; in assay [4], not above 4 µg/mL; in assay [5] it was not above 4 µg/mL; in assay [6], not above 1 µg/mL. Also, the MIC in assay [7] and in assay [8] was not above 1 µg/mL in each case.
